In assay [1] the test system is tail suspension test-induced disuse amyotrophy in mice. Nature of the assay: Tail suspension test-induced disuse amyotrophy (quadriceps femoris weight). Format: in vivo, mouse. As to conditions: C57BL/6J mice; 5 mg/kg intragastric once a day; tail suspension for 10 days from day 7; FIG. 4. On the procedure: Male C57BL/6J mice at 12 weeks of age were divided into 5 groups such that the average body weight was equal in all groups, i.e., a GR (ground) group, a TS (tail suspension) group, an EGCG group, an eriodictyol group, and an EGCG+eriodictyol group. From the beginning of grouping, the GR and TS groups received physiological saline, the EGCG group received EGCG and the eriodictyol group received eriodictyol (5 mg/kg) by intragastric administration, while the EGCG+eriodictyol group received EGCG and eriodictyol (5 mg/kg) by intragastric administration through a sonde. For 7 days from the beginning of grouping, all the groups were kept under normal conditions, and the TS, EGCG, eriodictyol, and EGCG+eriodictyol groups were then subjected to a tail suspension test. After the tail suspension test for 10 days (at 17 days after initiation of the experiment), all the mice were sacrificed by abdominal aortic puncture under isoflurane anesthesia, and the quadriceps femoris was excised from each mouse and measured for its weight. Each sample was administered daily throughout the experimental period. […] At 10 days after starting the tail suspension test, the mice were sacrificed by abdominal aortic puncture under isoflurane anesthesia, and the quadriceps femoris was excised from each mouse and measured for its weight.

Assay [2] relates to Human multiple myeloma cell line U266. Nature of the assay: Anticancer effect, viable cells by trypan blue assay (24-well plates, FIG. 14-19). The format is cell-based. As to conditions: 5 μM each, 96 hours; for enhancement of the anticancer effect (viable cells) of EGCG: combined with EGCG; for enhancement of the anticancer effect (viable cells) of EGCG 3″Me: combined with EGCG 3″Me; for enhancement of the anticancer effect (viable cells) of GCG: combined with GCG (gallocatechin gallate). On the procedure: Human multiple myeloma cell line U266 was subcultured and maintained in RPMI 1640 medium supplemented with 10% fetal bovine serum (FCS) under conditions of 37° C. and water vapor-saturated 5% CO2. The cells were maintained in the logarithmic growth phase. The RPMI 1640 medium used for culture was prepared as follows: per liter of ultrapure water, RPMI 1640 medium (10.4 g), HEPES (2.38 g), injectable penicillin G potassium (100,000 units), streptomycin sulfate injectable (100 mg) and NaHCO3 (2.0 g) were suspended and then filter-sterilized. Then, the RPMI 1640 medium was supplemented with FCS and used for cell culture. Per liter of ultrapure water, NaCl (8.0 g), KCl (0.2 g), Na2HPO4 (1.15 g) and KH2PO4 (0.2 g) were dissolved to prepare PBS, which was then sterilized in an autoclave.
Eriodictyol and structural analogs thereof, i.e., naringenin and hesperetin, as well as glycosides thereof, i.e., eriocitrin, naringin and hesperidin were each adjusted to 5 mM with 100% dimethyl sulfoxide (DMSO) and stored at −30° C. EGCG and (−)-gallocatechin gallate (GCG) were each adjusted to 5 mM with ultrapure water and stored at −30° C. EGCG 3″Me was adjusted to 5 mM with 10% DMSO dH2O and stored at −30° C.
U266 adjusted to 5×10^4 cells/mL in RPMI 1640 containing 1% FCS, SOD (5 U/mL) and catalase (200 U/mL) was seeded in 24-well plates and cultured for 96 hours in the presence of EGCG and analogs thereof or eriodictyol and analogs thereof added at a final concentration of 5 μM each. After culture, viable cells were counted by trypan blue assay.
For statistical processing of the experimental results, Student's test was used and P<0.05 was considered statistically significant in comparison with control data in the vehicle group.

For assay [3] the test system is unchanged. Kind of assay: Cancer cell death induction, viable cells by trypan blue assay (96-well plate, FIG. 9). Format: cell-based. As to conditions: 96 hours, in combination with EGCG, EGCG 3″Me or green tea extract. On the procedure: Human multiple myeloma cell line U266 was subcultured and maintained in RPMI 1640 medium supplemented with 10% FCS under conditions of 37° C. and water vapor-saturated 5% CO2. The cells were maintained in the logarithmic growth phase. The RPMI 1640 medium used for culture was prepared as follows: per liter of ultrapure water, RPMI 1640 medium (10.4 g), HEPES (2.38 g), injectable penicillin G potassium (100,000 units), streptomycin sulfate injectable (100 mg) and NaHCO3 (2.0 g) were suspended and then filter-sterilized.
The lemon peel extract used in the experiment was prepared as follows. Peels (100 g) were collected with a grater from 6 lemons and 100% EtOH (100 mL) was added thereto, followed by mashing with a mortar. The mashed mixture was further strained through gauze to remove fibers and then filtered by gravity using a #1 paper filter and a funnel to remove precipitates, followed by centrifugation at 12000×g to collect the supernatant. The resulting ethanol extract of lemon was evaporated with an evaporator to volatilize the solvent, thereby obtaining an ethanol-extracted lemon fraction. This ethanol-extracted lemon fraction was dissolved again in DMSO to give a lemon extract. […] After culture, viable cells were counted by trypan blue assay.
To evaluate the effect of combined use of EGCG or a structural analog thereof or an EGCG-containing naturally occurring product and eriodictyol or a structural analog thereof or an eriodictyol-containing naturally occurring product, human multiple myeloma cell line U266 was adjusted to 5×10^4 cells/mL and seeded in a 96-well plate, and then cultured for 96 hours in the presence of EGCG and eriodictyol added at a final concentration of 5 μM each. After culture for 96 hours, viable cells were counted by trypan blue assay.

Molecules are shown by their SMILES.

Consider 6 compounds from patent US10251408B2, “Catechin function enhancement method” (KYUSHU UNIVERSITY, NATIONAL UNIVERSITY CORPORATION, priority 2014, dated 2019).

On to `O=C(O[C@@H]1Cc2c(O)cc(O)cc2O[C@@H]1c1cc(O)c(O)c(O)c1)c1cc(O)c(O)c(O)c1` [EGCG, epigallocatechin gallate], for which the “effect on amyotrophy (quadriceps femoris weight)” value in assay [1] is reported as “no effect on amyotrophy”.

With `C[C@@H]1O[C@@H](OC[C@H]2O[C@@H](Oc3cc(O)c4c(c3)O[C@H](c3ccc(O)c(O)c3)CC4=O)[C@H](O)[C@@H](O)[C@@H]2O)[C@H](O)[C@H](O)[C@H]1O` [eriocitrin], in assay [2], the “enhancement of the anticancer effect (viable cells) of EGCG” value is listed as “remarkably enhance the anticancer effect”, the “enhancement of the anticancer effect (viable cells) of EGCG 3″Me” value (from here on “enhancement … of EGCG 3″Me”) is “remarkably enhance the anticancer effect” and the “enhancement of the anticancer effect (viable cells) of GCG” value (“enhancement … of GCG” below) was “remarkably enhance the anticancer effect”.

Turning to `COc1ccc([C@@H]2CC(=O)c3c(O)cc(O)cc3O2)cc1O` [hesperetin], in assay [3], the “enhancement of the anticancer effect (viable cells) of EGCG, EGCG 3″Me or a green tea extract” value is on record as “remarkably enhance the anticancer effect”. Also, in assay [2], the “enhancement of the anticancer effect (viable cells) of EGCG” value is reported as “remarkably enhance the anticancer effect”, the “enhancement … of EGCG 3″Me” value is given as “remarkably enhance the anticancer effect” and the “enhancement … of GCG” value is given as “remarkably enhance the anticancer effect”.

As for `COc1ccc([C@@H]2CC(=O)c3c(O)cc(O[C@@H]4O[C@H](CO[C@@H]5O[C@@H](C)[C@H](O)[C@@H](O)[C@H]5O)[C@@H](O)[C@H](O)[C@H]4O)cc3O2)cc1O` [hesperidin], in assay [2], the “enhancement of the anticancer effect (viable cells) of EGCG” value is “remarkably enhance the anticancer effect”, the “enhancement … of EGCG 3″Me” value is recorded as “remarkably enhance the anticancer effect” and the “enhancement … of GCG” value is given as “remarkably enhance the anticancer effect”.

For the compound `O=C1C[C@@H](c2ccc(O)cc2)Oc2cc(O)cc(O)c21` [naringenin], the “enhancement of the anticancer effect (viable cells) of EGCG, EGCG 3″Me or a green tea extract” value in assay [3] is on record as “remarkably enhance the anticancer effect”. Further, in assay [2], the “enhancement of the anticancer effect (viable cells) of EGCG” value is given as “remarkably enhance the anticancer effect”, the “enhancement … of EGCG 3″Me” value is given as “remarkably enhance the anticancer effect” and the “enhancement … of GCG” value is on record as “remarkably enhance the anticancer effect”.

For `C[C@@H]1O[C@@H](O[C@H]2[C@H](Oc3cc(O)c4c(c3)O[C@H](c3ccc(O)cc3)CC4=O)O[C@H](CO)[C@@H](O)[C@@H]2O)[C@H](O)[C@H](O)[C@H]1O` [naringin], in assay [2], the “enhancement of the anticancer effect (viable cells) of EGCG” value is given as “remarkably enhance the anticancer effect”.
